# Reference: article PMC6121439 (International Journal of Molecular Sciences, 2018)
# No end group written: not given here.
# How the values were obtained:
# [1] = system: E. coli cells; test: Bacterial cell leakage, SYTOX Green; assay type: cell-based, Escherichia coli; details: SYTOX Green 5 µM, 40 min, Triton X-100 = maximum, mean ± SEM
# [2] = system: primary human monocytes; test: Cytotoxicity by resazurin reduction; assay type: cell-based; details: human monocytes 4 × 10^5 cells/well, peptide up to 100 µM, 72 h at 37 °C
# Procedure: (§1) Minimum Bactericidal Concentrations (MBC100) were determined by CFU counting following plating of bacterial culture onto Petri dishes after four hours of incubation with serial peptide concentrations. The ED50 was calculated by ATP quantification using the BacTiter-Glo™ Microbial Cell Viability kit (Promega, Madison, WI, USA). Cell cytotoxicity was quantified using resazurin reduction in human monocytes. Fifty percent cytotoxic concentration (CC50) was calculated as described in Materials and methods. […] Values are given as mean ± SEM.
# [3] = system: S.aureus (36055) clinical isolate, MRSA; test: Bacterial viability by ATP quantification (BacTiter-Glo); assay type: cell-based, Staphylococcus aureus; details: ATP luminescence, 4 h at 37 °C, peptide up to 100 µM
# Procedure: as §1
# (§2) The MBC of each peptide was determined as described previously. Bacteria were incubated at 37 °C overnight in Luria-Bertani broth (LB) and diluted to approximately 5 × 10^5 CFU/mL. […]
# (§3) Antibacterial activity was assayed by following the cell viability of E. coli and S. aureus, using the BacTiter-Glo™ Microbial Cell Viability kit (Promega), which measures the number of viable bacterial cells, by ATP quantification. ATP, as an indicator of metabolically active cells, is indirectly measured by a coupled luminescence detection assay. […]
# [4] = system: S. aureus (ATCC 502A); test: as above; assay type: cell-based, Staphylococcus aureus; details: ATP luminescence, 4 h at 37 °C, mean ± SEM, three replicates of two experiments
# Procedure: as §1
# (§4) Antibacterial activity was assayed by following the cell viability of E. coli and S. aureus, using the BacTiter-Glo™ Microbial Cell Viability kit (Promega), which measures the number of viable bacterial cells, by ATP quantification. ATP, as an indicator of metabolically active cells, is indirectly measured by a coupled luminescence detection assay. The luminescent signal is proportional to the amount of ATP required for the conversion of luciferin into oxyluciferin in the presence of luciferase.
# [5] = system: E. coli (BL21); test: Minimum bactericidal concentration (CFU counting); assay type: cell-based, Escherichia coli; details: ~5 × 10^5 CFU/mL, peptide 20 to 0.1 µM in Hepes 20 mM, 0.1 M NaCl, pH 7.5, 4 h at 37 °C, then plating, two independent experiments in triplicate
# Procedure: as §1
# (§5) The MBC of each peptide was determined as described previously. Bacteria were incubated at 37 °C overnight in Luria-Bertani broth (LB) and diluted to approximately 5 × 10^5 CFU/mL. The strains used in this study corresponded to Escherichia coli BL21 from Novagen (Madison, WI, USA), Staphylococcus aureus (ATCC502A) obtained from the Colección Española de Cultivos tipo (CECT), Universidad de Valencia, Spain, Pseudomonas aeruginosa (ATCC® 15692, PAO1), from the American Type Culture Collection (ATCC; Rockville, MD, USA) and P. aeruginosa PA14 were used as reference strains. Three clinical isolates of S. aureus, MRSA (34026, 36055 and 39413) and two clinical isolates of P. aeruginosa (M8C1 and M18C1) were obtained by the kind donation of the Centro de Investigaciones Microbiológicas, CIMIC (Universidad de los Andes, Bogotá, Colombia). […]
# [6] = system: S. aureus genes 16S, parE, MprF; test: Bacterial gene expression by RT-qPCR; assay type: cell-based, Staphylococcus aureus; details: 0.1 µM, 30 min, RT-qPCR normalized to GAPDH
# Procedure: (§6) The bacterial gene expression of proteins implicated in stress pathways and bacterial resistance response was evaluated following incubation with sub-lethal concentrations of the peptides. The following genes were selected: DnaK gene encoding for a chaperone, ompC gene encoding for a protein porin; sbmA encoding for an integral inner membrane protein that participates in an ABC transporter, parE encoding for a DNA topoisomerase IV and MprF for a lysyl transferase that ensures the synthesis of lysylphosphatidylglycerol (LPG). Total bacterial RNA was extracted using the mirVAna™ Isolation Kit, which integrates an organic extraction and solid-phase extraction to obtain high yields of ultra-pure, high quality RNA. […] Ampicillin was used at the same concentration as a positive control. After incubation cells were sedimented and resuspended in lysis buffer. RNA isolation was done according to manufacturer’s instructions. The amount of RNA extracted was quantified using Quantus™ Fluorometer (Promega). […] Complementary DNA (cDNA) synthesis is the first step of the two-step quantitative reverse transcriptase Polymerase Chain Reaction (RT-qPCR). cDNA was generated by the enzyme reverse transcriptase (RT). An aliquot of 1000 ng of total RNA was used to synthesize cDNA according to the manufacture instruction of iScript™ cDNA Synthesis Kit.
# Gene expression of Escherichia coli and Staphylococcus aureus after peptide incubation was determined by Real Time Quantitative Polymerase Chain Reaction (RT-qPCR). The amount of amplified product was measured at each PCR cycle by using fluorescent probes and reading the signal emitted from the dyes while performing the thermal cycling. 1 μL of cDNA (5 ng) was mixed with 2 μL of RNase free water, 5 μL of iTaq Universal Master SYBR green Supermix, 1 μL of each primer of interest (500 nM), for a total volume of 10 μL per reaction. The genes studied in E. coli cells correspond to DnaK, ompC, SbmA and 16S MprF, parE for S. aureus. […] Gene expression level was analyzed using a comparative quantification method ΔCq. […] Each sample was analyzed in triplicate. […]
# [7] = system: S. aureus (ATCC 502A); test: Minimum bactericidal concentration (CFU counting); assay type: cell-based, Staphylococcus aureus; details: ~5 × 10^5 CFU/mL, peptide 20 to 0.1 µM in Hepes 20 mM, 0.1 M NaCl, pH 7.5, 4 h at 37 °C, then plating, two independent experiments in triplicate
# Procedure: as §1, §5
# [8] = system: E. coli cells; test: Minimum agglutination concentration on bacteria; assay type: cell-based, Escherichia coli; details: Tris-HCl, 0.1 M NaCl, pH 7.5, 1 h at 37 °C, visual inspection, 50× stereoscope
# Procedure: For determination of minimum agglutination concentration (MAC) values, bacterial cells were grown at 37 °C to mid-exponential phase (OD600 = 0.6), centrifuged at 5000× g for 2 min, and resuspended in Tris-HCl buffer, 0.1 M NaCl, pH 7.5 to give an absorbance of 0.2 at 600 nm. A 100 µL aliquot of the bacterial suspension was incubated with the peptide at various (0.01–10 µM) concentrations at 37 °C for 1 h. Agglutination behavior was observed by visual inspection using a 50× stereoscope microscope and the MAC value was expressed as described.
# [9] = Liposome leakage, ANTS/DPX; details: DOPC/DOPG (3:2) LUVs 30 µM, 37 °C, 20 mM NaCl, 10 mM Tris/HCl pH 7.5
# [10] = system: E. coli cells; test: Bacterial membrane depolarization, DiSC3(5) dye; assay type: cell-based, Escherichia coli; details: DiSC3(5) 0.4 µM, peptide 0.1 to 5 µM, 20 °C, mean ± SEM
# [11] = system: E. coli (BL21); test: Bacterial viability by ATP quantification (BacTiter-Glo); assay type: cell-based, Escherichia coli; details: ATP luminescence, 4 h at 37 °C, Hepes 20 mM pH 7.5, 0.1 M NaCl, peptide 100 to 0.1 µM, mean ± SEM, three replicates of two experiments
# Procedure: as §1, §4
# [12] = system: E. coli cells; test: FACS internalization of FITC-labeled peptides; assay type: cell-based, Escherichia coli; details: FITC-labeled peptide, sublethal concentration (0.5 µM), 10 min
# Procedure: (§7) We performed FACS analysis in order to analyze the internalization of the FITC labeled peptides into E. coli and S. aureus cells. […] After corroborating the internalization of the peptides, the labeled peptide distribution was evaluated by FACS. Live/dead cell population was analyzed by monitoring the influx of propidium iodide (PI) at 10 min and 4 h of incubation.
# (§8) Bacterial cell overnight culture was inoculated in a fresh LB to reach logarithmic phase OD600 of 0.2. A 500 µL aliquot of the bacterial suspension was incubated with 0.5 µM of each peptide for 10 min. After incubation and subsequently washes with 1× PBS at least thrice to remove presence of FITC-labeled peptide in the medium, 20,000 cells were subjected to FACS analysis using a FACSCalibur cytometer (BD Biosciences, Franklin Lakes, NJ, USA). The peptide bacterial uptake was assayed using 0.10 µM and 0.5 µM of each peptide at the first 10 min and after 4 h of peptide incubation.
# (§9) (1 picture or pasted object on this page, not shown here)
# [13] = system: P. aeruginosa (M18C1) clinical isolate; test: Bacterial viability by ATP quantification (BacTiter-Glo); assay type: cell-based, Pseudomonas aeruginosa; details: ATP luminescence, 4 h at 37 °C, peptide up to 100 µM
# Procedure: as §1, §2, §3
# [14] = system: P. aeruginosa (M8C1) clinical isolate; test: as above; assay type: cell-based, Pseudomonas aeruginosa; details: ATP luminescence, 4 h at 37 °C, peptide up to 100 µM
# Procedure: as §1, §2, §3
# [15] = Liposome agglutination by dynamic light scattering; details: DOPC/DOPG LUVs 30 µM; DLS; 25 °C; 10 mM Tris/HCl, 100 mM NaCl pH 7.4; peptide 0.1–2 µM
# [16] = system: P. aeruginosa (PA14); test: Bacterial viability by ATP quantification (BacTiter-Glo); assay type: cell-based, Pseudomonas aeruginosa; details: P. aeruginosa PA14 reference strain; ATP luminescence; 4 h at 37 °C; mean ± SEM, three replicates of two experiments
# Procedure: as §1, §2, §3
# [17] = system: P. aeruginosa (PA01); test: as above; assay type: cell-based, Pseudomonas aeruginosa; details: P. aeruginosa PA01 reference strain; ATP luminescence; 4 h at 37 °C; mean ± SEM, three replicates of two experiments
# Procedure: as §1, §2, §3
# [18] = system: S. aureus cells; test: FACS internalization of FITC-labeled peptides; assay type: cell-based, Staphylococcus aureus; details: FITC-labeled peptide, sublethal concentration (0.5 µM), 10 min
# Procedure: as §7, §8, §9
# [19] = system: S.aureus (34026) clinical isolate, MRSA; test: Bacterial viability by ATP quantification (BacTiter-Glo); assay type: cell-based, Staphylococcus aureus; details: ATP luminescence, 4 h at 37 °C, mean ± SEM, three replicates of two experiments
# Procedure: as §1, §2, §3
# [20] = system: S.aureus (39413) clinical isolate, MRSA; test: as above; assay type: cell-based, Staphylococcus aureus; details: ATP luminescence, 4 h at 37 °C, mean ± SEM, three replicates of two experiments
# Procedure: as §1, §2, §3
# [21] = system: pET28 plasmid DNA; test: DNA binding gel retardation assay; details: 200 ng pET28 plasmid DNA; peptide-to-DNA weight ratios 2.5:1, 5:1, 10:1; 20 min room temperature; 1.0% agarose gel
# [22] = system: E. coli genes DnaK, ompC, sbmA; test: Bacterial gene expression by RT-qPCR; assay type: cell-based, Escherichia coli; details: 0.1 µM, 30 min, RT-qPCR normalized to GAPDH
# Procedure: as §6
# Gene expression of Escherichia coli and Staphylococcus aureus after peptide incubation was determined by Real Time Quantitative Polymerase Chain Reaction (RT-qPCR). The amount of amplified product was measured at each PCR cycle by using fluorescent probes and reading the signal emitted from the dyes while performing the thermal cycling. 1 μL of cDNA (5 ng) was mixed with 2 μL of RNase free water, 5 μL of iTaq Universal Master SYBR green Supermix, 1 μL of each primer of interest (500 nM), for a total volume of 10 μL per reaction. The genes studied in E. coli cells correspond to DnaK, ompC, SbmA and 16S MprF, parE for S. aureus. GAPDH was used as housekeeping for date normalization in the qPCR assays. Gene expression level was analyzed using a comparative quantification method ΔCq. This method assesses the fold change compared to a calibrator sample (control or group of reference). Counts for genes of interest were adjusted in relation to a reference (housekeeper) gene GAPDH. Reactions were subjected to 60 °C for 1 min and 95 °C for 10 min, followed by 40 cycles of 95 °C for 15 s and 60 °C for 1 min. Each sample was analyzed in triplicate. Data analysis was performed using Bio-Rad CFX Manager. The figure of gene level expression was designed by R project.
compound,measurement,setting,value
"GLVGTLLGHIGKAILGG-OH [Peptide F2.3S, Frenatin 2.3S]","Leakage (ED50), Bacteria",[1],0.1 ± 0.07 µM
same,CC50,[2],>100 µM
same,ED50,[3],>100 µM
same,ED50,[4],1.1 ± 0.07 µM
same,MBC100,[5],0.62 µM
same,16S gene expression,[6],did not induce significant changes
same,MprF gene expression,[6],did not induce significant changes
same,parE gene expression,[6],did not induce significant changes
same,MBC100,[7],1.87 µM
same,"Agglutination (MAC), Bacteria",[8],>5 µM
same,"Leakage (ED50), Liposomes",[9],0.1 µM
same,"Depolarization (ED50), Bacteria",[10],0.1 ± 0.05 µM
same,ED50,[11],0.23 ± 0.01 µM
same,Internalization into bacterial cells (FACS),[12],internalization within bacterial cells
same,ED50,[13],>100 µM
same,ED50,[14],>100 µM
same,"Agglutination (MAC), Liposomes",[15],>2 µM
same,ED50,[16],3.1 ± 0.003 µM
same,ED50,[17],3.4 ± 0.062 µM
same,Internalization into bacterial cells (FACS),[18],internalization within bacterial cells
same,ED50,[19],55.82 ± 0.005 µM
same,ED50,[20],11.99 ± 0.001 µM
same,DNA-binding activity (gel retardation),[21],high DNA-binding activity
same,DnaK gene expression,[22],upregulation
same,ompC gene expression,[22],upregulated
same,sbmA gene expression,[22],downregulation
"CC1(C)S[C@@H]2[C@H](NC(=O)[C@H](N)c3ccccc3)C(=O)N2[C@H]1C(=O)O [ampicillin, Ampicillin, reference compound]",DnaK gene expression,[22],upregulated
same,sbmA gene expression,[22],mild reduction
